According to PubChem BioAssay (NCI):
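The concentration for 50% growth inhibition is given as GI50. TGI marks complete inhibition of growth.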

Columns and labels:
Experiment in all cases: DTP human tumour cell line panel, 384-well format; in the data active means GI50 below about 0.43 µM; inactive means the rest
SF-295 CNS = test system: SF-295 CNS
HS 578T breast = test system: HS 578T breast
SW-620 colon = test system: SW-620 colon
CCRF-CEM leukemia = test system: CCRF-CEM leukemia
TK-10 renal = test system: TK-10 renal
DU-145 prostate = test system: DU-145 prostate
NCI-H522 lung = test system: NCI-H522 lung
OVCAR-4 ovarian = test system: OVCAR-4 ovarian
OVCAR-5 ovarian = test system: OVCAR-5 ovarian
MALME-3M melanoma = test system: MALME-3M melanoma
NCI-H322M lung = test system: NCI-H322M lung
MDA-MB-231 breast = test system: MDA-MB-231 breast
HOP-92 NSCLC = test system: HOP-92 NSCLC
IGROV1 ovarian = test system: IGROV1 ovarian
OVCAR-8 ovarian = test system: OVCAR-8 ovarian
SF-268 CNS = test system: SF-268 CNS
ACHN renal = test system: ACHN renal
M14 melanoma = test system: M14 melanoma
COLO 205 colon = test system: COLO 205 colon
HOP-62 NSCLC = test system: HOP-62 NSCLC
CAKI-1 renal = test system: CAKI-1 renal
BT-549 breast = test system: BT-549 breast
NCI-H226 lung = test system: NCI-H226 lung
UACC-257 melanoma = test system: UACC-257 melanoma
SNB-19 CNS = test system: SNB-19 CNS
MOLT-4 leukemia = test system: MOLT-4 leukemia
NCI-H460 NSCLC = test system: NCI-H460 NSCLC
T-47D breast = test system: T-47D breast
UO-31 renal = test system: UO-31 renal

COCCn1c2c([n+](Cc3cnccn3)c1C)C(=O)c1ccccc1C2=O
12.2 nM: TGI (NCI-H460 NSCLC)
16.5 nM: TGI (CCRF-CEM leukemia) | TGI (OVCAR-5 ovarian)
37.9 nM: TGI (MALME-3M melanoma)
15.2 nM: TGI (HOP-62 NSCLC)
125 nM: TGI (HS 578T breast)
22.5 nM: TGI (SF-295 CNS)
24 nM: TGI (TK-10 renal)
45.7 nM: TGI (ACHN renal)
7730 nM: TGI (UO-31 renal)
25.9 nM: TGI (NCI-H322M lung)
40.4 nM: TGI (NCI-H226 lung)
12 nM: TGI (M14 melanoma)
active: GI50 (SF-295 CNS) 10.4 nM | GI50 (HS 578T breast) 19.8 nM | GI50 (SW-620 colon) < 10 nM | GI50 (CCRF-CEM leukemia) < 10 nM | GI50 (TK-10 renal) < 10 nM | GI50 (DU-145 prostate) < 10 nM | GI50 (NCI-H522 lung) < 10 nM | GI50 (OVCAR-4 ovarian) < 10 nM | GI50 (OVCAR-5 ovarian) < 10 nM | GI50 (MALME-3M melanoma) 16.1 nM | GI50 (NCI-H322M lung) < 10 nM | GI50 (MDA-MB-231 breast) < 10 nM | GI50 (HOP-92 NSCLC) < 10 nM | GI50 (IGROV1 ovarian) < 10 nM | GI50 (OVCAR-8 ovarian) < 10 nM | GI50 (SF-268 CNS) < 10 nM | GI50 (ACHN renal) 17.6 nM | GI50 (M14 melanoma) < 10 nM | GI50 (COLO 205 colon) < 10 nM | GI50 (HOP-62 NSCLC) < 10 nM | GI50 (CAKI-1 renal) < 10 nM | GI50 (BT-549 breast) < 10 nM | GI50 (NCI-H226 lung) 11.4 nM | GI50 (UACC-257 melanoma) < 10 nM | GI50 (SNB-19 CNS) < 10 nM | GI50 (MOLT-4 leukemia) < 10 nM | GI50 (NCI-H460 NSCLC) < 10 nM | GI50 (T-47D breast) < 10 nM | GI50 (UO-31 renal) 377 nM
10.3 nM: TGI (SW-620 colon)
11 nM: TGI (COLO 205 colon)
< 10 nM: TGI (DU-145 prostate) | TGI (NCI-H522 lung) | TGI (OVCAR-4 ovarian) | TGI (MDA-MB-231 breast) | TGI (HOP-92 NSCLC) | TGI (IGROV1 ovarian) | TGI (OVCAR-8 ovarian) | TGI (SF-268 CNS) | TGI (CAKI-1 renal) | TGI (BT-549 breast) | TGI (UACC-257 melanoma) | TGI (SNB-19 CNS) | TGI (MOLT-4 leukemia) | TGI (T-47D breast)
